Results reported in publication PMC3004914, “Classification of Drugs Based on Properties of Sodium Channel Inhibition: A Comparative Automated Patch-Clamp Study” (PLoS ONE, 2010).
Read-outs that look alike come from different tables or passages of the source.

Tests used:
[1] = human plasma, cited from earlier work
[2] = target: T1, rNav1.2 sodium channels (HEK-293 cells) (Rattus norvegicus, UniProt P04775); experiment: steady-state inactivation protocol (availability curves), QPatch automated patch-clamp; format: cell-based
T1 sequence (P04775 whole entry, the tested form may be a part): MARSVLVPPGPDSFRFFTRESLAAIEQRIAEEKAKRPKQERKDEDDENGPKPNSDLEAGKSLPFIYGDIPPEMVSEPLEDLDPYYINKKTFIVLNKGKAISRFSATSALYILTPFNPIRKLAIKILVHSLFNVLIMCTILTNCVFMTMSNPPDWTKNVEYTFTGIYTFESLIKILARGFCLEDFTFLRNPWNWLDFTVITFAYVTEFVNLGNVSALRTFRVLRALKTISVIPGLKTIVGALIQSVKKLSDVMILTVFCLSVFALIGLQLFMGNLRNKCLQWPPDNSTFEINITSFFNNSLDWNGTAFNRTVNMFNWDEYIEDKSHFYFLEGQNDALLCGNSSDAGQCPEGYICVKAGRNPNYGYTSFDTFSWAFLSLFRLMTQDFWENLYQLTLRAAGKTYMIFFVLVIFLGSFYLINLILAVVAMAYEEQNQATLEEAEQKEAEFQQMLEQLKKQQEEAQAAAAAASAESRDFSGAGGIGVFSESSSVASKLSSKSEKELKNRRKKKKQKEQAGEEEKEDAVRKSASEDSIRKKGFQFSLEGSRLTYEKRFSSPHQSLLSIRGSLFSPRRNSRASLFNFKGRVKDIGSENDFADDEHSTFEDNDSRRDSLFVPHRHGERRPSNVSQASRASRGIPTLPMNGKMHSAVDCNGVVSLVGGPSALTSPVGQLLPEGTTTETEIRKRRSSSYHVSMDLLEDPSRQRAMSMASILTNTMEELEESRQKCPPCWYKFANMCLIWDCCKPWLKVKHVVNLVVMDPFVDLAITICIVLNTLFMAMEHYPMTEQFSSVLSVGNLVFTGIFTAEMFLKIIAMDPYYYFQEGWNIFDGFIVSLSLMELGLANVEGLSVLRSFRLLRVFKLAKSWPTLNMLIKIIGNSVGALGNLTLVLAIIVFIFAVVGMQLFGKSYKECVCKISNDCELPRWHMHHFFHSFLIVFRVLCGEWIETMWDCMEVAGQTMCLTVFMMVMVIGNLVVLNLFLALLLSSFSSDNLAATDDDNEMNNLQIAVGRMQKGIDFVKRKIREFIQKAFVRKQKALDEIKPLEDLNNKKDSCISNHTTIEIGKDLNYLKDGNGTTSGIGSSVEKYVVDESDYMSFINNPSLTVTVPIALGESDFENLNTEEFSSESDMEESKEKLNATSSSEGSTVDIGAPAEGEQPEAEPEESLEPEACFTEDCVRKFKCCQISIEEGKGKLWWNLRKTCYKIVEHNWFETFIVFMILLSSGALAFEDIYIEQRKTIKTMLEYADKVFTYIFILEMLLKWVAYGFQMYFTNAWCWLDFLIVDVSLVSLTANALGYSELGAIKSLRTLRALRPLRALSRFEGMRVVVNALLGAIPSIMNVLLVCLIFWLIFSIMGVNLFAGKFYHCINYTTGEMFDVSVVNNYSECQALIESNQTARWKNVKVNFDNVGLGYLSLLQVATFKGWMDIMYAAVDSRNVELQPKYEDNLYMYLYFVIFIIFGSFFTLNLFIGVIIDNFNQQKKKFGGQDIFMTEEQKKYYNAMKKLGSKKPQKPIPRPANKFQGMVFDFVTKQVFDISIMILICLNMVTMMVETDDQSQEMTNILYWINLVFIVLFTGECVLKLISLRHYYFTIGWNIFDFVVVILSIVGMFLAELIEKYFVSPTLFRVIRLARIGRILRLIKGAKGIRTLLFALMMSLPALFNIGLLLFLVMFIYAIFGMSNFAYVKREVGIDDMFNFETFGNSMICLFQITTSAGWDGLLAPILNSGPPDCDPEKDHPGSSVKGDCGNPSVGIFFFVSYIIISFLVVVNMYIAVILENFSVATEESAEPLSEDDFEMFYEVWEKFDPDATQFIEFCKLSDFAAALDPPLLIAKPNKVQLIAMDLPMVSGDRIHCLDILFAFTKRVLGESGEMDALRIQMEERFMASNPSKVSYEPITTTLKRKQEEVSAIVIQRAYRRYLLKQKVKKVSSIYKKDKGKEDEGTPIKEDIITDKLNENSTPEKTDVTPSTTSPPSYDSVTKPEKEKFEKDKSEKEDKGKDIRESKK
Text: (§1) A)–D) Peak amplitudes of evoked currents (5 Hz trains of 5 depolarizations from −90 to −10 mV) are plotted against time. Black dots: Control. Grey dots: Drug perfusion. […] Calculation of properties of inhibition is illustrated. […] E) Calculation of Kr and Ki values from steady-state availability curves.
Standard steady-state inactivation protocols were used to measure the shift of steady-state availability curve caused by the drugs. Currents were evoked by a 10 ms test pulse to −10 mV, preceded by 400 ms pre-pulses from −150 to −30 mV. […] Because the inhibition at hyperpolarized potentials (Inh−150), and the shift of the availability curves (ΔV1/2) are both concentration-dependent properties, we calculated affinities to hyperpolarized and depolarized states (“resting state affinity”: Kr, and “inactivated state affinity”: Ki), which, on the other hand, are concentration-independent characteristics of individual drugs. Calculation of Kr and Ki values are described in Materials and Methods, and illustrated in Figure 1E. State-dependence (SD) was quantified as the ratio Kr/Ki.
(§2) HEK-293 cells stably expressing rNav1.2 sodium channels were obtained from NeuroSearch (Ballerup, Denmark).
(§3) Cells were automatically prepared for application to the chips (centrifuged and washed twice, then resuspended in extracellular solution) as described previously. Composition of the extracellular solution was: (in mM): 140 NaCl, 3 KCl, 1 CaCl2, 1 MgCl2, 0.1 CdCl2, 20 TEA-Cl, 5 HEPES, adjusted to pH 7.3, Osmolality: ∼320 mOsm.
(§4) All electrophysiological experiments were conducted on Qpatch-16 or QPatch HT instruments using QPlate™ chips. For a detailed description of the instrument and the patch-clamp chips see [37], [38]. Data were sampled at a frequency of 25 kHz and filtered at 5 kHz. […] The amplifier was controlled and the data were collected by the Sophion QPatch client software. For initial data analysis the QPatch software was used. Built-in amplifiers provide an improved method for series resistance compensation. Leak subtraction (based on a standard P/n protocol) was used to subtract the capacitive component of currents.
Inactivated affinity (Ki) values were calculated assuming a simple four-state model of drug binding and channel gating, using two separate methods: (1) from the shift of the availability curve (ΔV1/2), the slope of the Boltzmann fit of the availability curve (k) and Kr, using the formula described by Bean, Cohen and Tsien (Ki−ΔV1/2; see Figure 1E), or (2) from the apparent affinity (Kapp) at a certain pre-pulse potential, which was calculated from the inhibition (e.g. Inh−60) as described above, and the availability (h) at the same pre-pulse potential, using the formula from Kuo and Bean (Figure 1E). […] (Arithmetic means and SEM values are given in Results S7.)

[3] = target: T1, rNav1.2 sodium channels (HEK-293 cells); experiment: 5 Hz train protocol, QPatch automated patch-clamp; format: cell-based; conditions: for Rev (reversibility): Rev = A5/A1 after washout; for potency estimated from few doses: −90 mV, read-out: IC50;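 as to UD (use-dependence of the inhibition): UD = (A3/A4)/(A1/A2) as ratios of peak amplitudes from Figure 1A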
Text: The dynamics of the onset and offset of inhibition was monitored using 5 Hz trains of five depolarizing pulses from a holding potential of −90 mV to −10 mV. The trains were repeated every 20 s. Drugs were applied after 10 control trains and 10 trains were delivered in the presence of the drug. The drug was then washed out, and the 10 trains were repeated.
We measured inhibition (Inh; from which we calculated IC50 values as described in Materials and Methods), reversibility of inhibition (Rev) and use-dependence (UD), as well as time constant of onset (τon) and offset (τoff). The calculation of IC50, quantification of Rev and UD, and the determination of time constants are illustrated in Figure 1A. Because τon should be concentration-dependent if we assume a single binding reaction, we excluded it from the analyses. […] Comments on the interpretation of these properties (Rev, […] and UD) are in Results S1.
as §1, §2, §3, §4
From this protocol we extracted five parameters, as illustrated in Figure 1A. We calculated inhibition of a single “cc” concentration: Inh = (amplitudectr – amplitudedrug)/amplitudectr.

[4] = target: sodium channels; conditions: averaged literature data, cited from earlier work; for Ki: read-out: Ki−Lit; for Kd: read-out: Kr−Lit
[5] = HEK293, 30 µM, read-out: Inh (inhibited fraction) at holding potential −150 mV
[6] = HEK293, 100 µM, read-out: Inh (inhibited fraction) at holding potential −150 mV
[7] = arithmetic mean, 30 µM, read-out: Ki-Kapp arith
[8] = arithmetic mean, 30 µM, read-out: Ki-ΔV1/2 arith
[9] = arithmetic mean, 30 µM, read-out: Kr arith
[10] = arithmetic mean, 100 µM, read-out: Ki-Kapp arith
[11] = arithmetic mean, 100 µM, read-out: Ki-ΔV1/2 arith
[12] = arithmetic mean, 100 µM, read-out: Kr arith
[13] = geometric mean, from Inh at −150 mV, 30 µM, read-out: Kr (resting state affinity)
[14] = geometric mean, from Inh at −150 mV, 100 µM, read-out: Kr (resting state affinity)
[15] = geometric mean, from apparent affinity, 30 µM, read-out: Ki−Kapp (inactivated state affinity)
[16] = geometric mean, from apparent affinity, 100 µM, read-out: Ki−Kapp (inactivated state affinity)
[17] = geometric mean, from shift of availability curve, 30 µM, read-out: Ki−ΔV1/2 (inactivated state affinity)
[18] = geometric mean, from shift of availability curve, 100 µM, read-out: Ki−ΔV1/2 (inactivated state affinity)
[19] = 30 μM, 500 s assigned where irreversible
[20] = HEK293, 30 μM, −90 mV holding potential, 5 Hz train, read-out: Inh (inhibited fraction)
[21] = HEK293, calculated from Inh at single concentration 30 μM, 5 Hz train

Compound	plasma conc. ([1]; as printed in each cell)	plasma conc. ([1]; as printed in the µg/ml cell)	ΔV1/2 (shift of availability curve) ([2]; 30 μM)	ΔV1/2 (shift of availability curve) ([2]; 100 μM)	inhibition at 30 µM [2, 5]	inhibition at 100 µM [2, 6]	Ki [2, 7]	Ki [2, 8]	Kd [2, 9]	Ki [2, 10]	Ki [2, 11]	Kd [2, 12]	τon ([3]; 30 μM)	UD (use-dependence of the inhibition) ([3]; 30 μM, 5 Hz train)	τoff [3, 19]	Rev (reversibility) ([3]; 30 μM)	inhibition at 30 µM [3, 20]	potency estimated from few doses [3, 21]	Ki [4]	Kd [4]	further results
CN(C)CCC=C1c2ccccc2CCc2ccccc21 [AMI, Amitriptyline]	0.064 [44] µg/ml	0.204 µM	−11.2 mV	−18 mV	20%	59%	5.13 µM	3.78 µM	128 µM	2.08 µM	1.87 µM	72.4 µM	10.54 s	1.66	16.95 s	0.50	56%	23.5 µM	0.52 µM	38.1 µM	ΔV1/2 (shift of availability curve) ([2]; 10 µM): −11.3 mV; inhibition at 10 µM ([2]; HEK293, 10 µM, read-out: Inh (inhibited fraction) at holding potential −150 mV): 8%; Ki ([2]; arithmetic mean, 10 µM, read-out: Ki-Kapp arith): 5.17 µM; Ki ([2]; arithmetic mean, 10 µM, read-out: Ki-ΔV1/2 arith): 1.97 µM; Kd ([2]; arithmetic mean, 10 µM, read-out: Kr arith): 155 µM; Kd ([2]; geometric mean, from Inh at −150 mV, 10 µM, read-out: Kr (resting state affinity)): 134 µM; Kd [2, 13]: 125 µM; Kd [2, 14]: 69.6 µM; Ki ([2]; geometric mean, from apparent affinity, 10 µM, read-out: Ki−Kapp (inactivated state affinity)): 3.34 µM; Ki [2, 15]: 4.92 µM; Ki [2, 16]: 2 µM; Ki ([2]; geometric mean, from shift of availability curve, 10 µM, read-out: Ki−ΔV1/2 (inactivated state affinity)): 1.45 µM; Ki [2, 17]: 3.69 µM; Ki [2, 18]: 1.65 µM
CCCCN1CCCCC1C(=O)Nc1c(C)cccc1C (centres unmarked) [BPV, Bupivacaine]	0.8 [44] µg/ml	2.462 µM		−11.3 mV		14%				8.21 µM	6.46 µM	635 µM							20.1 µM	291 µM	Kd [2, 14]: 619 µM; Ki [2, 16]: 7.79 µM; Ki [2, 18]: 5.85 µM; τon ([3]; 100 μM): 7.95 s; UD (use-dependence of the inhibition) ([3]; 100 μM, 5 Hz train): 1.62; τoff ([3]; 100 μM, 500 s assigned where irreversible): 16.73 s; Rev (reversibility) ([3]; 100 μM): 0.75; use-dependence (UD) ([3]; 5 Hz train): high use-dependence; inhibition at 100 µM ([3]; HEK293, 100 μM, −90 mV holding potential, 5 Hz train, read-out: Inh (inhibited fraction)): 60%; potency estimated from few doses ([3]; HEK293, calculated from Inh at single concentration 100 μM, 5 Hz train): 67.7 µM
NC(=O)N1c2ccccc2C=Cc2ccccc21 [CBZ, Carbamazepine]	9.3 [44] µg/ml	39.362 µM																	21.8 µM	946 µM	ΔV1/2 (shift of availability curve) ([2]; 300 μM): −11.4 mV; inhibition at 300 µM ([2]; HEK293, 300 µM, read-out: Inh (inhibited fraction) at holding potential −150 mV): 21%; Ki ([2]; arithmetic mean, 300 µM, read-out: Ki-Kapp arith): 26.9 µM; Ki ([2]; arithmetic mean, 300 µM, read-out: Ki-ΔV1/2 arith): 40.1 µM; Kd ([2]; arithmetic mean, 300 µM, read-out: Kr arith): 1180 µM; Kd ([2]; geometric mean, from Inh at −150 mV, 300 µM, read-out: Kr (resting state affinity)): 1170 µM; Ki ([2]; geometric mean, from apparent affinity, 300 µM, read-out: Ki−Kapp (inactivated state affinity)): 26.4 µM; Ki ([2]; geometric mean, from shift of availability curve, 300 µM, read-out: Ki−ΔV1/2 (inactivated state affinity)): 39.9 µM; τoff ([3]; 300 μM): 10.01 s; τon ([3]; 300 μM, 3 s assigned where too short to be resolved): 3 s; UD (use-dependence of the inhibition) ([3]; 300 μM, 5 Hz train): 0.98; Rev (reversibility) ([3]; 300 μM): 0.87; inhibition at 300 µM ([3]; HEK293, 300 μM, −90 mV holding potential, 5 Hz train, read-out: Inh (inhibited fraction)): 29%; potency estimated from few doses ([3]; HEK293, calculated from Inh at single concentration 300 μM, 5 Hz train): 718 µM; potency ([3]; in words): among the least potent SCIs
CN(C)CCCN1c2ccccc2Sc2ccc(Cl)cc21 [CPM, Chlorpromazine]	0.1 [44] µg/ml	0.281 µM	−18.4 mV		32%		1.03 µM	0.33 µM	85.8 µM				14.81 s	1.30	9.67 s	0.07	41%	47.3 µM	0.19 µM	3.18 µM	Kd [2, 13]: 69.6 µM; Ki [2, 15]: 0.82 µM; Ki [2, 17]: 0.29 µM
CNCCCN1c2ccccc2CCc2ccccc21 [DMI, Desipramine]	0.1 [44] µg/ml	0.330 µM			35%								32.02 s	1.32	51.82 s	0.43	62%	18.3 µM	1.15 µM	29.2 µM	
